# Where two headings read alike, the source gives them in different places.
# Columns and labels:
# [1] = tested on: msfGFP reporter gene under control of BCD10; assay type: cell-based, P. putida KT2440; settings: 5 mM 3-FBz (inducible systems), 30 mM glucose, FIG. 6
# XylS/Pm = assay type: cell-based, P. putida KT2440
# CatR/Pcat = assay type: cell-based, P. putida KT2440; settings: 1.0 mM
# BenR/Pben = assay type: cell-based, P. putida KT2440; settings: 1.0 mM
# P. putida KT2440 [2] = assay: Shaken flask fermentation with 10 mM 2-FBz or 3-FBz; assay type: cell-based, Pseudomonas putida
# P. knackmussii [3] = assay: as above; assay type: cell-based, Pseudomonas knackmussii; design: rate qp: unit not given here; settings: for product formation rate qp: from 2-FBz; for rate qp: from 3-FBz
# P. putida KT2440 [4] = settings: 30 mM glucose
# Pmuc10 = assay: Microtiter plate cultivation: growth with metabolites of the bioconversion; settings: Example 6 (improved method), 30 mM glucose
# Pmuc3 pSEVA228 = assay type: cell-based, Pseudomonas putida; settings: 30 mM glucose
# P. knackmussii [5] = assay: Microtiter plate cultivation: growth with metabolites of the bioconversion; settings: 30 mM glucose
# [6] = Example 6 (improved method), 1.0 mM additive
# [7] = Example 6 (improved method), 2.0 mM additive
# [8] = Example 6 (improved method), 5.0 mM additive
# [9] = Example 6 (improved method), 0.5 mM additive
molecule,measurement,setting,value
"P14g: constitutive promoter, SEQ ID NO: 50 (DNA GCCCATTGACAAGGCTCTCGCGGCCAGGTATAATTGCACGA; expressed or natural sequence) [Strain P14g, reference compound]",transcription initiation rate: quotient of OD630 nm-normalized fluorescence with the one of Ptac,[1],2.51
"Cc1cccc(C(=O)O)c1 [Strain 3-mBz, 3-methyl benzoate, reference compound]",GFP expression under Pm(ML1-17) control relative to the expression provided by Pm,XylS/Pm; compound as inducer,70%
same,induction by 1 mM as compared to 5 mM of the inducer,XylS/Pm; data not shown,94%
same,response,CatR/Pcat,no response at all
same,increase in GFP expression over basal expression,BenR/Pben,No further increase
"O=C(O)/C=C\C=C(\F)C(=O)O [Strain 2-FMA, 2-fluoro-cis,cis-muconate]",combined product formation rate qp,P. putida KT2440 [2]; 10 mM 3-FBz,0.06 mmol gCDW^−1 h^−1
same,product formation rate qp,P. putida KT2440 [2]; from 10 mM 2-FBz,0.06 mmol gCDW^−1 h^−1
same,product formation rate qp,P. knackmussii [3]; Example 1,0.05 mmol gCDW^−1 h^−1
same,product formation rate qp,P. knackmussii [3]; Example 6,0.03 mmol gCDW^−1 h^−1
same,rate qp,P. knackmussii [3]; Example 1,0.05
same,rate qp,P. knackmussii [3]; Example 6,0.09
same,response to 1.0 mM as compared to 1.0 mM ccMA,CatR/Pcat,6.7 fold
same,reduction of growth rate and maximum biomass concentration,"P. putida KT2440 [4]; 15 mM, FIG. 14",50%
same,concentration up to which the growth profile was similar to cultures with glucose only,P. putida KT2440 [4]; FIG. 14,up to 10 mM
same,Maximum growth rate μmax,P. putida KT2440 [4]; [6],0.86 h⁻¹
same,Maximum growth rate μmax,P. putida KT2440 [4]; [7],1.00 h⁻¹
same,Maximum growth rate μmax,P. putida KT2440 [4]; [8],0.86 h⁻¹
same,Maximum growth rate μmax,"P. putida KT2440 [4]; Example 6 (improved method), 10 mM additive",0.80 h⁻¹
same,Maximum growth rate μmax,"P. putida KT2440 [4]; Example 6 (improved method), 15 mM additive",0.66 h⁻¹
same,Maximum growth rate μmax,"P. putida KT2440 [4]; Example 6 (improved method), 20 mM additive",no growth
same,Maximum growth rate μmax,Pmuc10; 1 mM additive,1.24 h⁻¹
same,Maximum growth rate μmax,Pmuc10; 2.0 mM additive,1.20 h⁻¹
same,Maximum growth rate μmax,Pmuc10; 5 mM additive,1.08 h⁻¹
same,Maximum growth rate μmax,Pmuc10; 10 mM additive,0.98 h⁻¹
same,Maximum growth rate μmax,Pmuc10; 15 mM additive,0.47 h⁻¹
same,Maximum growth rate μmax,Pmuc10; 20 mM additive,no growth
"Oc1ccc(F)cc1O [Strain 4-FC, 4-fluorocatechol]",Maximum growth rate μmax,"Pmuc3 pSEVA228; Example 1, 0.5 mM additive",0.55 h⁻¹
same,Maximum growth rate μmax,"Pmuc3 pSEVA228; Example 1, 1.0 mM additive",0.54 h⁻¹
same,Maximum growth rate μmax,"Pmuc3 pSEVA228; Example 1, 2.0 mM additive",0.35 h⁻¹
same,Maximum growth rate μmax,Pmuc3 pSEVA228; [9],0.55 h⁻¹
same,Maximum growth rate μmax,Pmuc3 pSEVA228; [6],0.50 h⁻¹
same,Maximum growth rate μmax,Pmuc3 pSEVA228; [7],0.28 h⁻¹
same,Maximum growth rate μmax,"P. putida KT2440 [4]; Example 1, 0.5 mM additive",0.77 h⁻¹
same,Maximum growth rate μmax,"P. putida KT2440 [4]; Example 1, 1.0 mM additive",0.64 h⁻¹
same,Maximum growth rate μmax,"P. putida KT2440 [4]; Example 1, 2.0 mM additive",0.48 h⁻¹
same,Maximum growth rate μmax,P. putida KT2440 [4]; [9],0.72 h⁻¹
same,Maximum growth rate μmax,P. putida KT2440 [4]; [6],0.52 h⁻¹
same,Maximum growth rate μmax,P. putida KT2440 [4]; [7],0.34 h⁻¹
same,Maximum growth rate μmax,P. putida KT2440 [4]; [8],no growth
same,Maximum growth rate μmax,"P. knackmussii [5]; Example 1, 0.5 mM additive",0.34 h⁻¹
same,Maximum growth rate μmax,"P. knackmussii [5]; Example 1, 1.0 mM additive",0.32 h⁻¹
same,Maximum growth rate μmax,"P. knackmussii [5]; Example 1, 2.0 mM additive",0.25 h⁻¹
same,Maximum growth rate μmax,P. knackmussii [5]; [9],0.31 h⁻¹
same,Maximum growth rate μmax,P. knackmussii [5]; [6],0.26 h⁻¹
same,Maximum growth rate μmax,P. knackmussii [5]; [7],0.17 h⁻¹
